# Results as given in patent US10517863B2, “Trilobine and its natural analogs for use as a drug” (PIERRE FABRE MEDICAMENT, priority 2015, dated 2019).
# What was measured:
# [1] = tested on: P16 promoter in colon cancer cells HCT116; assay: P16 (CDKN2A) promoter demethylation, COBRA; format: cell-based, human; settings: at 0.1 μM
# Protocol: Cancer cell lines (colon HCT116 or leukaemia KG1) were treated with the compounds as indicated in the Data Tables and then analysed as following.
# DNA was isolated from cultured cells using the DNeasy Blood and Tissue Kit according to the manufacturer's specifications (Qiagen). DNA bisulphite conversion was performed on 2 μg of DNA using the EZ DNA Methylation-Gold Kit according to the manufacturer's specifications (Zymo Research) and bisulfited DNA was eluted with 10 μL of water. Two different techniques were used to analyse the DNA methylation profile after bisulfite conversion of genomic DNA: (A) cloning and sequencing or (B) COBRA. The primers for each promoter are specified in the Table 3.
# This technique is a variation of bisulfite sequencing, and combines bisulfite conversion based polymerase chain reaction with restriction digestion. DNA methylation levels are easily and quickly measured without the need for laborious and costing more time sub-cloning and sequencing, as with bisulfite sequencing.
# DNA amplification was set up with 100 ng eluted bisulfited DNA in 50 μl PCR reaction containing 1×PCR buffer, 2.5 mM MgCl2, 0.3 mM dNTPs, 400 nM each primer and 1.25 units EpiTaq HS (Takara) on C1000 Touch™ thermal cycler by 98° C. for 10 sec, 55° C. for 30 sec, 72° C. for 30 sec×40 cycles. 20 μL of PCR amplicons were digested in 30 μL by 2 units of BsiEI at 60° C. for 90 min. DNA fragments were migrated by 2% agarose gel electrophoresis and each band was quantified by Image Lab Software v2.0 (BioRad Laboratories).
# [2] = tested on: luciferase reporter under the control of a methylated CMV promoter in leukemia KG-1 cells; assay: CMV-luc reexpression (luciferase reporter) in KG-1 cells; format: cell-based, human; settings: for Reactivation fold of luciferase gene reporter in KG-1 CMV-Luc: 24 hour incubation, fold induction vs DMSO, mean ± standard error
# Protocol: Aiming at identifying new DNMT inhibitors, plant extract samples were tested for their ability to reactivate gene expression upon use of an integrated luciferase reporter system under the control of a methylated CMV promoter in leukemia KG-1 cells which inhibits its expression (CMV-luc assay reported in following Table). […] The extract was fractionated by preparative HPLC. Identification of the active components was accomplished by HRMS and NMR spectroscopy. The pure compounds isolated from the extract through bio-guided fractionation are trilobine and bisbenzylisoquinoline analogue products. The active compounds were then further evaluated for their ability to inhibit DNMTs in vitro and DNA methylation in cancer cells.
# KG-1 cells were stably transfected with the firefly luciferase reporter gene (luc+ from pGL3; Promega) under the control of the cytomegalovirus (CMV) promoter (from pEGFP-N1; Clontech Laboratories Inc.) partially methylated (50%). 20,000 cells per well were seeded in a 96-well plate. After 24 hour incubation in the presence of the test compound or solvant (DMSO), the induction of the promoter was measured by quantification of the luciferase signal with the Brite-lite assay system (PerkinElmer) according to the manufacturer's protocol. The luminescence was measured on an EnVision multilabel plate reader (PerkinElmer), and the data are expressed as the fold induction as compared with the DMSO control. The mean of three experiments and the standard error is reported.
structure (smiles),measurement,setting,value
"COc1ccc2cc1Oc1ccc(cc1)C[C@@H]1NCCc3cc(OC)c4c(c31)Oc1cc3c(cc1O4)CCN(C)[C@H]3C2 [Compound 1, Trilobine]",Demethylation (COBRA) P16/HCT116,[1]; after 3 days,−37% after 3 days
same,Demethylation (COBRA) P16/HCT116,[1]; after 7 days,−52% after 7 days
same,Demethylation (COBRA) P16/HCT116,[1]; after 21 days,−53% after 21 days
same,Reactivation fold of luciferase gene reporter in KG-1 CMV-Luc,[2]; 0.1 μM,1.1 ± 0.1 fold
same,Reactivation fold of luciferase gene reporter in KG-1 CMV-Luc,[2]; 0.32 μM,1.9 ± 1.2 fold
same,Reactivation fold of luciferase gene reporter in KG-1 CMV-Luc,[2]; 0.5 μM,1.6 ± 0.8 fold
same,Reactivation fold of luciferase gene reporter in KG-1 CMV-Luc,[2]; 1 μM,2.6 ± 1.4 fold
same,Reactivation fold of luciferase gene reporter in KG-1 CMV-Luc,[2]; 3.2 μM,3.5 ± 1.1 fold
same,Reactivation fold of luciferase gene reporter in KG-1 CMV-Luc,[2]; 5 μM,6.4 ± 0.1 fold
same,"FI-24 h, KG1 CMV-Luc model","[2]; at 5 μM, 24 h",5.8 ± 0.6
